How the values were obtained:
[1] = test system: Escherichia coli (E. coli—ATCC #10536); test: Automated assessment of efficacy in model surfactant base (2.85% sodium cocoyl glycinate + 1.85% sodium lauroamphoacetate, pH 10), 15 seconds exposure, delta OD450/OD590 in D/E quench; format: cell-based
Description: Solutions were prepared such that the concentrations of the surfactant components and test actives were 1.1× the final desired concentration in order to allow for dilution with the bacterial inoculum in the test. The solutions were manually adjusted to pH 10.0 by dropwise addition of sodium hydroxide solution, as measured with a pH meter at ambient temperature.
Tests were conducted using standard microtiter plate assays using an automated liquid handling system. 270 μl of the surfactant test solution was pipetted into each well of the microtitre plate and 30 μl of the bacterial suspension was then added. After exactly 15 seconds of bacterial exposure, a 30 μl volume of bacterial cells was withdrawn and transferred to 270 μl of D/E quench solution. After 5 minutes in the D/E quench, the optical density (OD) was measured for each plate in turn at two specific wavelengths (450 nm and 590 nm). These provide a dual check of antimicrobial activity, as the OD450 reading is specific for the yellow colour of D/E quench when bacterial growth is observed, whereas OD590 is specific for the initial purple colour of the D/E quench which is retained if no bacterial growth is observed. After the time zero OD measurements, plates were then incubated at 37° C. overnight (16 hours) before repeating the OD measurements. Delta OD values were calculated by subtracting […]. Bacterial growth is observed as an increase in OD450 and a decrease in ΔOD590. To identify antibacterially efficacious systems (those preventing appreciable bacterial growth after incubation), the following threshold changes in OD readings have been adopted: if (1). OD450 increases by less than 0.2 absorbance unit on incubation and (2). OD590 decreases by less than 0.35 unit on incubation. Conversely, where OD450 increases by more than 0.2 AU and OD590 decreases by more than 0.35 unit after incubation, corresponding to a colour shift from purple to yellow, the test system allows bacterial growth and is not deemed efficacious. Four replicate measurements in the same plate have been made for each test system. The number of replicate wells showing either bacterial growth or no growth is also readily assessed by eye by following the colour change.
Dose responses for individual components and binary mixtures of actives at a fixed concentration ratio were generated by sequential dilution of liquors with further surfactant solution to obtain a series of endpoints.
In some selected cases, the combinations were also tested at the weight ratio 1:1.
The method used was the same as in the above Table.

E. coli ATCC #10536 = test: Synergy test: high resolution MBC microtiter plate assay in phosphate buffer containing 35% dipropylene glycol, 15 seconds contact; format: cell-based, Escherichia coli; details: for MBC of the component acting alone (QA or QB; Qa or Qb with the other component at 0): E. coli 10536, complete kill in 15 seconds, phosphate buffer with 35% DPG
Description: One measure of synergy is the industrially accepted method described by Kull, F. C.; Eisman. P. C.; Sylwestrowicz, H. D. and Mayer, R. L., in Applied Microbiology 9:538-541 (1961), using the ratio determined by the formula: Qa/QA÷Qb/QB=Synergy Index (“SI”) wherein: QA=concentration of compound A (first component) in percent, acting alone, which produced an end point (MBC of Compound A). […]=concentration of compound A in percent, in the mixture, which produced an end point. QB=concentration of compound B (second component) in percent, acting alone, which produced an end point (MBC of Compound B). Qb=concentration of compound B in percent, in the mixture, which produced an end point.
When the sum of Qa/QA and Qb/QB is greater than one, antagonism is indicated. […] The lower the SI, the greater is the synergy shown by that particular mixture. The minimum biocidal concentration (MBC) of a microbicide is the lowest concentration tested under a specific set of conditions that provides complete kill of the tested microorganisms.
Synergy tests were conducted using standard microtiter plate assays with phosphate buffer containing 35% dipropylene glycol (DPG). In this method, a wide range of combinations of chemicals was tested by conducting high resolution MBC assays of Component (A) in the presence of various concentrations of Component (B). High resolution MBCs were determined by adding varying amounts of microbicide to one column of a microtiter plate and doing subsequent ten-fold dilutions using an automated liquid handling system to obtain a series of closely spaced endpoints. The MBC plate was inoculated one column at a time with the test microorganism. An aliquot of the inoculated well was transferred at 15 seconds to a plate containing a neutralizing agent (D/E Neutralizing Broth), mixed and held for 5 minutes before being transferred to a growth plate containing trypticase soy broth (TSB). The TSB plate was incubated at 37° C. and read for the presence/absence of growth at 24 hours. The lowest level tested that provided complete kill (as evidenced by no growth in the microtitre plate) of the test organisms in 15 seconds is the minimum biocidal concentration (MBC).
The synergy of the combinations of the present invention was determined against a bacterium, Esherichia coli (E. coli—ATCC #10536), at a concentration of approximately 1×10^8 bacteria per mL. This microorganism is representative of natural contaminants in many consumer and industrial applications.

| Structure (SMILES) | Δ OD 590 nm = OD590 (time = 16 hours) − OD590 (time zero), Mean ([1]; single active at 0.1% w/v) | No. of replicates showing growth (out of 4) ([1]; single active at 0.2% w/v) | Δ OD 590 nm = OD590 (time = 16 hours) − OD590 (time zero), Mean ([1]; single active at 0.2% w/v) | ΔOD 450 nm = OD450 (time = 16 hours) − OD450 (time zero), Mean ([1]; single active at 0.2% w/v) | Δ OD 590 nm = OD590 (time = 16 hours) − OD590 (time zero), Mean ([1]; single active at […] w/v) | ΔOD 450 nm = OD450 (time = 16 hours) − OD450 (time zero), Mean ([1]; single active at […] w/v) | MBC of the component acting alone (QA or QB; Qa or Qb with the other component at 0) (E. coli ATCC #10536) | also measured |
| --- | --- | --- | --- | --- | --- | --- | --- | --- |
| CC(C)(C)c1ccccc1O [2-tert-butylphenol] | 0.23 | 0 | 0.07 | −0.04 | – | – | – | Δ OD 590 nm = OD590 (time = 16 hours) − OD590 (time zero), Mean ([1]; single active at 0.05% w/v): 0.22; No. of replicates showing growth (out of 4) ([1]; single active at 0.1% w/v): 4; ΔOD 450 nm = OD450 (time = 16 hours) − OD450 (time zero), Mean ([1]; single active at 0.1% w/v): −1.55; Δ OD 590 nm = OD590 (time = 16 hours) − OD590 (time zero), Mean ([1]; single active at 0.125% w/v): 0.30 |
| CCC(C)c1ccccc1O (centres unmarked) [2-sec-butylphenol] | 0.36 | – | – | – | 0.50 | −0.41 | 0.3 weight % | Δ OD 590 nm = OD590 (time = 16 hours) − OD590 (time zero), Mean ([1]; single active at 0.05% w/v): 0.30; ΔOD 450 nm = OD450 (time = 16 hours) − OD450 (time zero), Mean ([1]; single active at 0.05% w/v): −1.50 |
| Cc1cc(O)ccc1C(C)C [4-isopropyl-3-methylphenol] | 0.24 | 4 | 0.36 | −1.41 | – | – | 0.3 weight % | Δ OD 590 nm = OD590 (time = 16 hours) − OD590 (time zero), Mean ([1]; single active at 0.05% w/v): 0.25; ΔOD 450 nm = OD450 (time = 16 hours) − OD450 (time zero), Mean ([1]; single active at 0.05% w/v): −1.52; ΔOD 450 nm = OD450 (time = 16 hours) − OD450 (time zero), Mean ([1]; single active at 0.1% w/v): −1.50 |
| Cc1ccc(C(C)C)cc1O [5-isopropyl-2-methylphenol] | – | 4 | 0.62 | −0.52 | 0.64 | −0.52 | – | No. of replicates showing growth (out of 4) ([1]; single active at 0.125% w/v): 4; Δ OD 590 nm = OD590 (time = 16 hours) − OD590 (time zero), Mean ([1]; single active at 0.125% w/v): 0.63; ΔOD 450 nm = OD450 (time = 16 hours) − OD450 (time zero), Mean ([1]; single active at 0.125% w/v): −0.50; No. of replicates showing growth (out of 4) ([1]; single active at […] w/v): 4; SI (Synergy Index) (E. coli ATCC #10536): 1.00 |
| CC(C)(C)c1cccc(O)c1 [3-tert-butylphenol] | – | – | 0.64 | −0.47 | – | – | 0.3 weight % | Δ OD 590 nm = OD590 (time = 16 hours) − OD590 (time zero), Mean ([1]; single active at 0.125% w/v): 0.65; ΔOD 450 nm = OD450 (time = 16 hours) − OD450 (time zero), Mean ([1]; single active at 0.125% w/v): −0.45 |
| CCCc1ccc(O)cc1 [4-propylphenol] | 0.34 | – | 0.43 | −1.49 | – | – | – | – |
| CCCC1CCC(C(CO)CO)CC1 [2-((1S,4R)-4-propylcyclohexyl)propane-1,3-diol] | – | – | – | – | – | – | 2.5 weight % | – |
| C=C(C)[C@@H]1CC[C@@H](C)C[C@H]1O [(1R,2S,5R)-5-methyl-2-(prop-1-en-2-yl)cyclohexanol] | – | – | – | – | – | – | 0.5 weight % | – |
| CCC(C)c1ccc(O)cc1 (centres unmarked) [4-sec-butylphenol] | – | 4 | 0.59 | −0.56 | 0.60 | −0.53 | 0.2 weight % | Δ OD 590 nm = OD590 (time = 16 hours) − OD590 (time zero), Mean ([1]; single active at 0.125% w/v): 0.60; ΔOD 450 nm = OD450 (time = 16 hours) − OD450 (time zero), Mean ([1]; single active at 0.125% w/v): −0.56 |
| CCCC(=O)OC(C)(C)C1CC=C(C)CC1 (centres unmarked) [2-(4-methylcyclohex-3-enyl)propan-2-yl butyrate] | – | – | – | – | – | – | 2.4 weight % | – |
| CCCCc1ccc(O)cc1 [4-n-butylphenol] | 0.53 | – | 0.58 | −0.54 | 0.54 | −0.61 | – | ΔOD 450 nm = OD450 (time = 16 hours) − OD450 (time zero), Mean ([1]; single active at 0.1% w/v): −0.61 |
| CC(=O)O[C@H]1C[C@H](C)CC[C@H]1C(C)C [(1S,2S,5R)-2-isopropyl-5-methylcyclohexyl acetate] | – | – | – | – | – | – | 2.4 weight % | – |
| Cc1cc(O)cc(C(C)C)c1 [3-isopropyl-5-methylphenol] | – | – | – | – | – | – | 0.3 weight % | – |
| CC[C@H]1CC[C@H](C(CO)CO)CC1 [2-(trans-4-ethylcyclohexyl)propane-1,3-diol] | – | – | – | – | – | – | – | MBC ([1]; Escherichia coli, ATCC10536, 15 s, in 2.85% sodium cocoyl glycinate + 1.85% sodium lauroamphoacetate solution at pH 10, E. coli, read-out: MBC): > 2000 µg/mL |
| CCC1CCC(C(CO)CO)CC1 (centres unmarked) | – | – | – | – | 0.56 | −0.54 | – | No. of replicates showing growth (out of 4) ([1]; single active at 0.4% w/v): 4; Δ OD 590 nm = OD590 (time = 16 hours) − OD590 (time zero), Mean ([1]; single active at 0.4% w/v): 0.56; ΔOD 450 nm = OD450 (time = 16 hours) − OD450 (time zero), Mean ([1]; single active at 0.4% w/v): −0.49; No. of replicates showing growth (out of 4) ([1]; single active at 0.5% w/v): 4; Δ OD 590 nm = OD590 (time = 16 hours) − OD590 (time zero), Mean ([1]; single active at 0.5% w/v): 0.590; ΔOD 450 nm = OD450 (time = 16 hours) − OD450 (time zero), Mean ([1]; single active at 0.5% w/v): −0.48; No. of replicates showing growth (out of 4) ([1]; single active at […] w/v): 4 |
| CCCc1cccc(O)c1 [3-n-propylphenol] | – | 4 | 0.56 | −0.57 | 0.56 | −0.63 | – | No. of replicates showing growth (out of 4) ([1]; single active at 0.125% w/v): 4; Δ OD 590 nm = OD590 (time = 16 hours) − OD590 (time zero), Mean ([1]; single active at 0.125% w/v): 0.57; ΔOD 450 nm = OD450 (time = 16 hours) − OD450 (time zero), Mean ([1]; single active at 0.125% w/v): −0.59 |
| C/C=C/c1ccccc1O [(E)-2-(prop-1-enyl)phenol] | 0.59 | 4 | 0.63 | −0.53 | 0.58 | −0.57 | – | No. of replicates showing growth (out of 4) ([1]; single active at 0.1% w/v): 4; ΔOD 450 nm = OD450 (time = 16 hours) − OD450 (time zero), Mean ([1]; single active at 0.1% w/v): −0.60; No. of replicates showing growth (out of 4) ([1]; single active at […] w/v): 4 |
